# Source: patent US20240366611A1, “METHODS OF TREATING A DISEASE OR DISORDER” (Ascentage Pharma (Suzhou) Co., Ltd., priority 2021, published 2024)
# What was measured:
# [1] = tested on: CD4+CD45RBhigh T-cell transfer-induced IBD in CB17 mice; test: T cell transfer induced inflammatory bowel disease (IBD) model; assay type: in vivo; details: 90 mg/kg po qd day 14 to day 41
# Text: Female CB17 mice (8 weeks old) were obtained from Zhejiang Vital River Laboratory Animal Co. Ltd. Animals were housed and handled in a temperature-controlled environment with a 12-h light/12-h dark cycle. A total of 30 mice were assigned to 3 groups by randomization based on body weight.
# To generate T cell transfer induced colitis, 95 female Balb/c mice, aged 8-10 weeks, were used to prepare naive CD4^+CD45RB^high T and CD4^+CD45RB^low T cells. The mouse spleens were harvested in precooled DPBS, grinded into cell suspension and passed through a 70 μm cell filter after erythrocytes lysed by ACK. Cells were collected and counted by centrifugation. Then, CD4 positive T cells were isolated by using negative magnetic bead separation kit. CD4^+CD45RB^high naive T cells were selected by flow cytometry and used for model construction. 20 CB17 model mice were intraperitoneally injected with 5×10^5 naive CD4^+CD45RB^high T cells each on Day 0. 10 mice in negative control group were intraperitoneally injected with 5×10^5 CD4^+CD45RB^low T cells on Day 0.
# Mice in Group 2 were treated with vehicle for 28 days (po, qd, from day 14 to day 41). Mice in Group 3 were treated with 90 mg/kg Cpd. 73 for 28 days (therapeutic regimen, po, qd, from day 14 to day 41). The protocols and procedures involving the care and use of animals were approved by the Institutional Animal Care and Use Committee (IACUC) at WuxiApptec (Shanghai, China).
# Clinical signs of IBD were assessed every day based on the score of disease activity index (DAI) which was evaluated from two parameters using a scoring system from 0 to 4: stool consistency (0, normal stool; 1, soft but still formed stool; 2, soft and not formed stool; 3, very soft and wet stool; 4, watery diarrhea), and body weight loss (0, no body weight loos; 1, 1-5% body weight loss; 2, 6-10% body weight loss; 3, 11-20% body weight loss; 4, >20% body weight loss).
# At the end of the study (day 42), the animals were euthanized, dissected and the entire colon was quickly removed and gently cleared of feces.
# At the end of the study (day 42), all the animals were sacrificed by CO2. The colon was Swiss-rolled and fixed with neutralized PFA followed by H&E staining. After that, the pathologists from WuXi clinical pathological analysis platform, who were blinded to animal ID, reviewed the H&E staining and scored. The pathological scoring standards were as follows: crypt architecture (normal, 0; severe crypt distortion with loss of entire crypts, 3), degree of inflammatory cell infiltration (normal, 0; dense inflammatory infiltrate, 3), muscle thickening (normal, 0; marked muscle thickening present, 3), goblet cell depletion (absent, 0; present, 1) and crypt abscess (absent, 0; present, 1).
# [2] = tested on: HbF+ cells in human CD34+ HSC; test: HbF+ cell % in human CD34+ HSC by FACS; assay type: cell-based; details: 7 days of treatment
# Procedure: Human cord blood CD34+ hematopoietic stem cells (HSC) were first expanded in the expansion medium (StemSpan SFEM II+StemSpan CD34 Expansion Supplement) to achieve the desired number of cells, and then differentiated in differentiation medium (StemSpan SFEM II+StemSpan Erythroid Expansion Supplement (100×)) for three days without drug treatment. Various concentrations of Cpd. 73 were added on the fourth day of differentiation and further incubated with the cells for another 7 days. 33 mM Hydroxyurea was used as the control.
# After 7 days of treatment, the cells were collected and stained with PE-conjugated Mouse Anti-Human Fetal Hemoglobin (BD, 560041). The percentage of HbF+ cells were quantified by FACS. […] 73 respectively. […] 73 where HbF+ cell % was 2.58-folds of the vehicle group (p<0.0001). The % of HbF+ cells was 1.82-folds of the vehicle group when the cells were treated with 33 mM Hydroxyurea.
# [3] = tested on: H3K27me3 in PBMC monocytes; test: H3K27me3 level in PBMC monocytes (FACS, H3K27me3/H3 ratio); assay type: in vivo, CD-1 mice; details: vs vehicle
# Procedure: Female CD-1 mice (8 weeks old) were housed and handled in a temperature-controlled environment with a 12-h light/12-h dark cycle. A total of 25 mice were assigned to 5 groups by randomization based on body weight, followed by 5 days of treatment with vehicle (po, qd), 3 mg/kg Cpd. 73 (po, qd), 10 mg/kg Cpd. 73 (po, qd), 30 mg/kg Cpd. 73 (po, qd), or 90 mg/kg Cpd. 73 (po, qd). The protocols and procedures involving the care and use of animals were approved by the Institutional Animal Care and Use Committee (IACUC) of WuXiAppTec (Shanghai) Co., Ltd. (Shanghai, China).
# Mice were euthanatized 4 hours post the last dose. Whole blood and bone marrow were collected. Bone marrow cells were flushed from femur and tibia with IMDM+/+ (IMDM, 10% heat inactivated FBS, 100 U/mL penicillin and 100 μg/mL streptomycin). Aggregate was removed by passing through 40 μm cell strainer. 5 mL DPBS was used to pellet the cells after centrifugation, and the cell number was counted. Whole blood was added with 1×RBC lysis buffer remove RBC (whole blood: 1×RBC lysis buffer=1:9), and mononuclear cells were collected by centrifugation. The cells were then washed with 1×DPBS for once and resuspended in 3 ml DPBS after centrifugation followed by cell number counting.
# Bone marrow cells were stained with FITC-conjugated anti-mouse TER-119 antibody (Thermo Fisher, 11-5921-82) and eFluor 506-conjugated anti-mouse CD45 antibody (Thermo Fisher, 69-0451-82). TER-119+ cells were erythroid lineage cells. PBMC were stained with eFlour 450-conjugated anti-mouse CD11b antibody (Invitrogen, 48-0112-82), PerCP-eFluor710-conjugated anti-mouse CD3 antibody (Invitrogen, 46-0032-82), eFluor 506-conjugated anti-mouse CD45 antibody (Thermo Fisher, 69-0451-82). CD45+CD3−CD11b+ cells were monocytes from PBMC.
# After washing, centrifugation and fixation, the cells were permeabilized and further incubated with antibodies of H3K27m3 (Tri-Methyl-Histone H3 (Lys27) (C36B11) Rabbit mAb (PE Conjugate), CST, 40724S) and H3 (Histone H3 (D1H2) XP® Rabbit mAb (Alexa Fluor®647 Conjugate), CST, 12230S), followed by FACS analysis to quantify the mean fluorescence intensity of target cells. The ratio between the fluorescence intensity of H3K27me3 and H3 were used to reflect the level of H3K27me3 in the cells.
smiles,measurement,setting,value
"CC(C)N1Cc2cc(C(F)(F)F)ncc2-c2cnc(NCc3c(F)ccc4c3CCO4)n3cnc(c23)C1=O [Cpd. 73, 12-(((5-fluoro-2,3-dihydrobenzofuran-4-yl)methyl)amino)-4-isopropyl-7-(trifluoromethyl)-4,5-dihydro-3H-2,4,8,11,12a-pentaazabenzo[4,5]cycloocta[1,2,3-cd]inden-3-one]",body weight loss,[1],improved
same,colon length,"[1]; day 42, vehicle 7.72±0.18 cm",10.26±0.22 cm
same,"pathological score (H&E, colon)","[1]; day 42, vehicle 9.00±0.47",3.70±0.37
same,colon weight,"[1]; day 42, vehicle 439.10±25.46 mg",323.40 ± 16.06 mg
same,DAI score,"[1]; on day 42, vehicle 4.90±0.41",1.4±0.27
same,"% of HbF+ cells, folds of the vehicle group",[2]; 0.01 μM,0.73 folds
same,"% of HbF+ cells, folds of the vehicle group",[2]; 0.03 μM,0.86 folds
same,"% of HbF+ cells, folds of the vehicle group",[2]; 0.1 μM,1.50 folds
same,"% of HbF+ cells, folds of the vehicle group",[2]; 0.3 μM,1.73 folds
same,"% of HbF+ cells, folds of the vehicle group","[2]; 1.0 μM, maximal effect, p<0.0001",2.58 folds
same,percent of decrease of H3K27me3 level,[3]; 3 mg/kg po qd×5 days,17.9%
same,percent of decrease of H3K27me3 level,[3]; 10 mg/kg po qd×5 days,40.5%
same,percent of decrease of H3K27me3 level,[3]; 30 mg/kg po qd×5 days,8.8%
same,percent of decrease of H3K27me3 level,[3]; 90 mg/kg po qd×5 days,41.2%
